Results: patent US20200247897A1, “THERAPEUTIC ANTIBODIES BASED ON MUTATED IGG HEXAMERS” (GENMAB B.V., priority 2017, published 2020)
“Also recorded” adds a separate entry of the source.

Key:
[1] = system: COLO 205 human colon cancer cells; experiment: 3-days CellTiter-Glo viability assay, COLO 205; type: cell-based
Protocol: COLO 205 cells were harvested by pooling the culture supernatant containing non-adherent cells and trypsinized adherent cells. HCT 116 cells were harvested by trypsinization. […] In samples that were treated with a combination of two antibodies, the total antibody concentration in the assay was the same as in the samples that were treated with single antibodies. […] From the kit, 20 μL luciferin solution reagent was added per well and mixed by shaking the plate for 2 minutes at 500 rpm. Next, plates were incubated for 1.5 hours at 37° C. 100 μL supernatant was transferred to a white OptiPlate-96 (Perkin Elmer, Cat nr 6005299) and luminescence was measured on an EnVision Multilabel Reader (PerkinElmer). Data were analyzed and plotted using non-linear regression (sigmoidal dose-response with variable slope) using GraphPad Prism software.
The antibodies with and without the E430G mutation were tested as single agent and as combinations of the two non-crossblocking antibodies. COLO 205 cells were harvested as described in Example 8.

[2] = system: BxPC-3 pancreatic cancer cells; experiment: 3-days CellTiter-Glo viability assay, BxPC-3
[3] = system: SK-MES-1 human lung cancer cells; experiment: Subcutaneous SK-MES-1 lung cancer xenograft model; details: Example 33: 0.5, 2, 10 mg/kg i.v., twice Q7D
Protocol: The cells were maintained in vitro as a monolayer culture in MEM medium supplemented with 10% fetal bovine serum and 0.01 mM NEAA at 37° C. in an atmosphere of 5% CO2 in air. At day 0, adherent cells in an exponential growth phase were harvested by trypsin-EDTA treatment. 5×10^6 cells were injected in a volume of 100 μL PBS into the flank of 6-8 weeks old female BALB/c mice (Shanghai Laboratory Animal Center). Mouse handling and tumor volume measurements were performed as described in Example 30. Twenty-one days after tumor inoculation, the mean tumor size reached 161 mm^3 and mice were assigned into groups using randomized block design and treatments were started. Mice were treated twice according to a Q7D regimen by i.v. injection of 200 μg (10 mg/kg), 40 μg (2 mg/kg) or 10 μg (0.5 mg/kg) antibody in 10 μL PBS per g body weight. Mice in the control group were treated in parallel with 200 μg (10 mg/kg) IgG1-b12. After tumor inoculation, welfare of the animals was checked daily and tumor volumes were measured twice weekly.
Cell culturing, tumor cell inoculation, mice handling, tumor outgrowth measurements and endpoint determination were performed as described in Example 33.

[4] = system: PANC-1 pancreatic cancer cells; experiment: 3-days CellTiter-Glo viability assay, PANC-1; type: cell-based, human; details: 10 μg/mL
[5] = system: SW480 human colon cancer cells; experiment: Subcutaneous SW480 colon cancer xenograft model; type: in vivo, NOD/SCID mice; details: 0.5, 2, 10 mg/kg i.v., twice Q7D
Protocol: 1×10^7 cells were injected in a volume of 200 μL PBS with Matrigel (1:1) into the flank of 6-8 weeks old female NOD/SCID mice (Beijing HFK Bioscience).

[6] = system: COLO 205 human colon cancer cells; experiment: Subcutaneous COLO 205 colon cancer xenograft model; type: in vivo, SCID mice
Protocol: The in vivo anti-tumor efficacy of different anti-DR5 antibodies and the combination of DR5-01+DR5-05 antibodies with hexamerization enhancing mutation was evaluated in a subcutaneous model with COLO 205 human colon cancer cells. At day 0, cells were harvested by pooling the culture supernatant containing non-adherent cells and trypsinized adherent cells. 3×10^6 cells were injected in a volume of 200 μL PBS into the flank of 6-11 weeks old female SCID mice (C.B-17/IcrHan®Hsd-Prkdc^scid; Harlan). All experiments and animal handlings were approved by the local authorities, and were conducted according to all applicable international, national and local laws and guidelines. Tumor development was monitored at least twice per week by caliper (PLEXX) measurement as 0.52×(length)×(width)^2. […] Mice were treated by intraperitoneal (i.p.) injection of 100 μg antibody in 200 μL PBS on day 6 and 13 (5 mg/kg per dose). To check for correct antibody administration, blood samples were obtained for IgG serum determination three days after the first dose. […] Tumors were measured until 16 weeks after tumor inoculation.
Mice were treated by intravenous (i.v.) injection of 40 μg (2 mg/kg), 10 μg (0.5 mg/kg) or 2 μg (0.1 mg/kg) antibody in 100 μL PBS on day 10. Mice in the control group were treated with 40 μg (2 mg/kg) IgG1-b12. Tumors were measured until 17 weeks after tumor inoculation.
At day 9, the average tumor volume was measured and the mice were sorted into groups with equal tumor size variance. Mice were treated by intravenous (i.v.) injection of 10 μg (0.5 mg/kg) antibody in 200 μL PBS on day 9. Mice in the control group were treated with 10 μg (0.5 mg/kg) IgG1-b12.

[7] = system: HCT-15 colon cancer cells; experiment: 3-days CellTiter-Glo viability assay, HCT-15; details: 4 μg/mL
[8] = system: HCT-15 human colon cancer cells; experiment: Subcutaneous HCT-15 colon cancer xenograft model; type: in vivo, BALB/c nude mice; details: Example 30: 0.5, 2, 10 mg/kg i.v., twice Q7D
Protocol: (§1) The care and use of animals during the study were conducted in accordance with the regulations of the Association for Assessment and Accreditation of Laboratory Animal Care (AAALAC). Tumor volumes were measured twice weekly in two dimensions using a caliper, and the volume was expressed in mm^3 using the formula: V=0.5 a×b2 where a and b are the long and short diameters of the tumor, respectively.
as §1, with “a×b^2” for “a×b2”

[9] = 10 μg/mL, F(ab')2 goat-anti-human IgG, listed as IgG1-DR5-CONA

IgG1-CONA: reference anti-DR5 antibody based on U.S. Pat. No. 7,521,048 B2 and WO2010/138725
killing of COLO 205 cells in presence of Fc crosslinker [1, 9]: Fc crosslinking induced killing; also recorded: only induced killing in the presence of Fc crosslinker
killing of COLO 205 cells in absence of Fc crosslinker ([1]; 10 μg/mL, adherent cells): did not induce target cell killing in the absence of an Fc crosslinker
killing of adherent (attached) COLO 205 cells (% viable cells) ([1]; cells adhered overnight before adding antibody, dilution series): not able to kill attached COLO 205 colon cancer cells
effect of secondary crosslinker on killing of BxPC-3 cells ([2]; 4 μg/mL): enhanced by the presence of a secondary crosslinker
killing of BxPC-3 cells in absence of Fc crosslinker ([2]; 10 μg/mL): did not induce target cell killing in the absence of an Fc crosslinker
killing of BxPC-3 cells in presence of Fc crosslinker [2, 9]: Fc crosslinking induced killing; also recorded: only induced killing in the presence of Fc crosslinker
tumor growth (mean tumor volume) versus IgG1-b12 [3]: only had a significant effect compared to IgG1-b12 at 10 mg/kg (p<0.01) and 2 mg/kg (p<0.05) but not at 0.5 mg/kg
killing of PANC-1 cells in absence of Fc crosslinker [4]: did not induce target cell killing in the absence of an Fc crosslinker
tumor growth (mean tumor volume) versus IgG1-b12 [5]: only better than IgG1-b12 at the highest doses (10 mg/kg and 2 mg/kg p<0.01), but not at 0.5 mg/kg
tumor growth (mean tumor volume) ([6]; Example 26: 5 mg/kg i.p. on day 6 and 13): strongly inhibited tumor growth compared to IgG1-b12, but did not result in complete tumor abrogation
tumor growth progression versus IgG1-b12 (Kaplan-Meier, cutoff >500 mm^3) ([6]; Example 27: 0.5 mg/kg and 2 mg/kg): significantly inhibited tumor growth progression compared to the negative control antibody IgG1-b12
tumor regression (mean tumor volume) ([6]; Example 27: single dose 0.5 mg/kg i.v. day 10): regression was incomplete with recurring tumor outgrowth in all mice
tumor regression (mean tumor volume) ([6]; Example 27: single dose 2 mg/kg i.v. day 10): almost all (7/8) mice
effect of secondary crosslinker on killing of HCT15 cells [7]: enhanced by the presence of a secondary crosslinker
tumor growth (mean tumor volume) [8]: did not
